# Tests used:
# [1] = DRUGMATRIX: Phosphodiesterase PDE3 enzyme inhibition (substrate: [3H]cAMP + cAMP); assay type: tissue-based, Homo sapiens; settings: platelet; Not Active = under 50% inhibition at 10 µM
# Histamine H2 receptor = Histamine H2 receptor (Homo sapiens, UniProt P25021); assay type: cell membranes, CHO-K1, Membrane; settings: cho-k1; note: in other assays of this panel Not Active means under 50% inhibition at 10 µM
# [2] = molecular target: 5-hydroxytryptamine receptor 1B (Rattus norvegicus, UniProt P28564); assay type: cell membranes, Wistar, Cerebral cortex, Membrane; note: in other assays of this panel Not Active means under 50% inhibition at 10 µM
# [3] = molecular target: Aldo-keto reductase family 1 member B1 (Rattus norvegicus, UniProt P07943); assay type: tissue-based, Lens of camera-type eye;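 note: inhibition of aldose reductase enzyme activity, measured with DL-glyceraldehyde as the substrate; in other assays of this panel Not Active means under 50% inhibition at 10 µM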
# [4] = DRUGMATRIX: Glutamate, NMDA, Phencyclidine radioligand binding (ligand: [3H] TCP); assay type: cell membranes, Rattus norvegicus, Wistar, Cerebral cortex, Membrane; settings: Not Active = under 50% inhibition at 10 µM
# Cytochrome P450 3A4 = Cytochrome P450 3A4 (Homo sapiens, UniProt P08684); settings: bti-tn-5b1-4; note: in other assays of this panel Not Active means under 50% inhibition at 10 µM
# [5] = DRUGMATRIX: Platelet-Derived Growth Factor (PDGF) radioligand binding (ligand: [125I] PDGF); assay type: cell-based; settings: nih3t3; Not Active = under 50% inhibition at 10 µM
# D(3) dopamine receptor = D(3) dopamine receptor (Homo sapiens, UniProt P35462); test: DRUGMATRIX: Dopamine D3 radioligand binding (ligand: [3H] Spiperone); assay type: cell membranes, CHO, Membrane; settings: cho
# Adenosine receptor A1 = molecular target: T1, Adenosine receptor A1 (Homo sapiens, UniProt P30542); assay type: cell membranes, CHO, Membrane
# T1 sequence (P30542 whole entry): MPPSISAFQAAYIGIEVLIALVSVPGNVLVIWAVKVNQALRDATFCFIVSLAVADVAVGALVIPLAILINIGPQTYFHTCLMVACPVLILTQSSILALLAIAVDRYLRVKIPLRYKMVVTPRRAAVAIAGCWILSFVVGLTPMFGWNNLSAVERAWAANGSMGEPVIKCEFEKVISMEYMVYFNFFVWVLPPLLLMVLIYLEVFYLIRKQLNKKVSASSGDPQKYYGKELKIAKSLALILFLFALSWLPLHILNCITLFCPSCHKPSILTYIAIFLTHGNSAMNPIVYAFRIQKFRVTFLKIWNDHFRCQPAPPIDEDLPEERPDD
# [6] = DRUGMATRIX: Imidazoline I2, Central radioligand binding (ligand: [3H] Idazoxan); assay type: cell membranes, Rattus norvegicus, Wistar, Cerebral cortex, Membrane; settings: Not Active = under 50% inhibition at 10 µM
# Estrogen receptor = molecular target: T2, Estrogen receptor (Homo sapiens, UniProt P03372); settings: sf9; note: in other assays of this panel Not Active means under 50% inhibition at 10 µM
# T2 sequence (P03372 whole entry): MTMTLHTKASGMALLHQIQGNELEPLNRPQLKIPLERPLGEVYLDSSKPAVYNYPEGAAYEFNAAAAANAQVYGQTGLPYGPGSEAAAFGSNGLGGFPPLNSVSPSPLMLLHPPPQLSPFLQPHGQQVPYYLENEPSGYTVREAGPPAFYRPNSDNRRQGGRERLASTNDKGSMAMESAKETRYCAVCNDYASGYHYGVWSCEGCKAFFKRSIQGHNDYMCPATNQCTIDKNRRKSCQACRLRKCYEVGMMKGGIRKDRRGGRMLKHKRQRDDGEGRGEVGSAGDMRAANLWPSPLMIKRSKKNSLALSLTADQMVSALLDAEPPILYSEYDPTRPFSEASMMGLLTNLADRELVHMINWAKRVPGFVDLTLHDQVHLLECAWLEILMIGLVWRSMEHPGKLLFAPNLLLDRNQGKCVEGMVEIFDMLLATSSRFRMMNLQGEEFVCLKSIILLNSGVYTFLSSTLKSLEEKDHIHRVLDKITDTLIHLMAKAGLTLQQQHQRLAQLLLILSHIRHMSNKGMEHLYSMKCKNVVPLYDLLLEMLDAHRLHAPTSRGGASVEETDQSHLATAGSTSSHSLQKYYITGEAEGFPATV
# [7] = molecular target: T3, Neuropeptide Y receptor type 2 (Homo sapiens, UniProt P49146); assay type: cell membranes, Membrane; settings: kan-ts; note: in other assays of this panel Not Active means under 50% inhibition at 10 µM
# T3 sequence (P49146 whole entry): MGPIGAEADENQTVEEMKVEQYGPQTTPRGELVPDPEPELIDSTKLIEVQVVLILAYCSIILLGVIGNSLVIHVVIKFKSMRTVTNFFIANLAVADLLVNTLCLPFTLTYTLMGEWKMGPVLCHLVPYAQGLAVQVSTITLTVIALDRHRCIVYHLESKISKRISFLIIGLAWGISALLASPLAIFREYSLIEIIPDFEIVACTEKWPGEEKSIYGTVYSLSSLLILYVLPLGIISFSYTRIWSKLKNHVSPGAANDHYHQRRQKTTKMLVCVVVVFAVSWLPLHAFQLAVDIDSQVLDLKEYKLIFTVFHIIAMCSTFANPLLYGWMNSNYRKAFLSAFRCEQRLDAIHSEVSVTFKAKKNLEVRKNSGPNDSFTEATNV
# Melanocortin receptor 4 = Melanocortin receptor 4 (Homo sapiens, UniProt P32245); assay type: cell membranes, Membrane; settings: hek293; note: in other assays of this panel Not Active means under 50% inhibition at 10 µM
# Substance-P receptor = Substance-P receptor (Homo sapiens, UniProt P25103); assay type: cell membranes, CHO, Membrane; settings: cho; note: in other assays of this panel Not Active means under 50% inhibition at 10 µM
# [8] = DRUGMATRIX: GABAA, Chloride Channel, TBOB radioligand binding (ligand: [3H] TBOB); assay type: cell membranes, Rattus norvegicus, Wistar, Cerebral cortex, Membrane; settings: Not Active = under 50% inhibition at 10 µM
# [9] = DRUGMATRIX: Glutamate, NMDA, Agonism radioligand binding (ligand: [3H] CGP-39653); assay type: cell membranes, Rattus norvegicus, Wistar, Cerebral cortex, Membrane; settings: Not Active = under 50% inhibition at 10 µM
# [10] = molecular target: T4, C-X-C chemokine receptor type 2 (Homo sapiens, UniProt P25025); assay type: cell membranes, Membrane; settings: cho-k1; note: in other assays of this panel Not Active means under 50% inhibition at 10 µM
# T4 sequence (P25025 whole entry): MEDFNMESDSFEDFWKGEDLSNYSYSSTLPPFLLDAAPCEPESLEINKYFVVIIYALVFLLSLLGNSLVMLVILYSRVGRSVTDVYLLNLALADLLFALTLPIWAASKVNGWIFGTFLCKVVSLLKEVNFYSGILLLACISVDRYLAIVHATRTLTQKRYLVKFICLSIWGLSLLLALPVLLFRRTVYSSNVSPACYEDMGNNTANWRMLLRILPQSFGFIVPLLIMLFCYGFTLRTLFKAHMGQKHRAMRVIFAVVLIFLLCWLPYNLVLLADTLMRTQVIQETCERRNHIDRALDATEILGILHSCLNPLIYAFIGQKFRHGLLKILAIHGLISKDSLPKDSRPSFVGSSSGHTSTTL
# Sequence of Histamine H2 receptor (P25021 whole entry): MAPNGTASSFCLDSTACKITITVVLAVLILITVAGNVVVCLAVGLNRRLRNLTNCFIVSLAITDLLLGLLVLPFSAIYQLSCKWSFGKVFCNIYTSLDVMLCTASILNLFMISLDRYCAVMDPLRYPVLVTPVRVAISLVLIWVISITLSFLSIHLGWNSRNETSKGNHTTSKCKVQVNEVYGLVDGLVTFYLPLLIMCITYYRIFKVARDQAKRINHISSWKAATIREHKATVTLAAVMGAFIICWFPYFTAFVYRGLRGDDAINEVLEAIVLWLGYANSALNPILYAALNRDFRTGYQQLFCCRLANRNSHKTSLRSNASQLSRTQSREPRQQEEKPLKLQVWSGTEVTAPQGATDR
# Sequence of Cytochrome P450 3A4 (P08684 whole entry): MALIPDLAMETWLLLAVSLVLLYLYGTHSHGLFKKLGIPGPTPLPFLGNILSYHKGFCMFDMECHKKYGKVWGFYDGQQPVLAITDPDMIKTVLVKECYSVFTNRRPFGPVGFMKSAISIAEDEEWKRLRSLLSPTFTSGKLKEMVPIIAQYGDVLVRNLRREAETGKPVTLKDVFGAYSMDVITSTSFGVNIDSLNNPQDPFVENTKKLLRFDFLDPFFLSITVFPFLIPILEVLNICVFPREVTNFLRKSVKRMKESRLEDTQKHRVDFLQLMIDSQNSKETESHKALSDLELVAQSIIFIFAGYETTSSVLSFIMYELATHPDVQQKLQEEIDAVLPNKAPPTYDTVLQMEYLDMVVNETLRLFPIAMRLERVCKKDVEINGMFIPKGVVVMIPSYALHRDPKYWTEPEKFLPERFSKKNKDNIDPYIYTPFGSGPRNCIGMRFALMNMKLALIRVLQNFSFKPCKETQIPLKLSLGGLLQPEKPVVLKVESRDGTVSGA
# Sequence of 5-hydroxytryptamine receptor 1B (P28564 whole entry): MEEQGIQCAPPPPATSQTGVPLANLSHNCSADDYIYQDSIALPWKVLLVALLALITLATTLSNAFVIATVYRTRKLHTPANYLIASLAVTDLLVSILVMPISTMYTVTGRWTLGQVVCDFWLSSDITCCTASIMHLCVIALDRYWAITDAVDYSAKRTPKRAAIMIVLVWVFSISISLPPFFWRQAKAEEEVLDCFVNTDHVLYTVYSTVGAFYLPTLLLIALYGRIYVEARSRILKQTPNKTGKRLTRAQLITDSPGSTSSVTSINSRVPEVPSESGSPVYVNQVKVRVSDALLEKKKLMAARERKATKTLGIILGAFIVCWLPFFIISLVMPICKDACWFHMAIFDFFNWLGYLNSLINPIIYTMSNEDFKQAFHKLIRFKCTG
# Sequence of D(3) dopamine receptor (P35462 whole entry): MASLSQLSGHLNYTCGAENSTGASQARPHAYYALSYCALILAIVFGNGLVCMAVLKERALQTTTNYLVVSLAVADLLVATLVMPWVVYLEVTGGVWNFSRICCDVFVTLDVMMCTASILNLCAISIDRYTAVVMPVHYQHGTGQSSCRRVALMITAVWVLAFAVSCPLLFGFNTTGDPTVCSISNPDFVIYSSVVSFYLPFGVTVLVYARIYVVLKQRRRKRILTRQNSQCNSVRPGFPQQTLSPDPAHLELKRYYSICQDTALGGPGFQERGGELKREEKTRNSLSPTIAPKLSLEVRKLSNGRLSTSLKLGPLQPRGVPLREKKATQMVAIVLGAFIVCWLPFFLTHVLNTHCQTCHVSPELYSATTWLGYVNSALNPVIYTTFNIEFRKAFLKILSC
# Sequence of Melanocortin receptor 4 (P32245 whole entry): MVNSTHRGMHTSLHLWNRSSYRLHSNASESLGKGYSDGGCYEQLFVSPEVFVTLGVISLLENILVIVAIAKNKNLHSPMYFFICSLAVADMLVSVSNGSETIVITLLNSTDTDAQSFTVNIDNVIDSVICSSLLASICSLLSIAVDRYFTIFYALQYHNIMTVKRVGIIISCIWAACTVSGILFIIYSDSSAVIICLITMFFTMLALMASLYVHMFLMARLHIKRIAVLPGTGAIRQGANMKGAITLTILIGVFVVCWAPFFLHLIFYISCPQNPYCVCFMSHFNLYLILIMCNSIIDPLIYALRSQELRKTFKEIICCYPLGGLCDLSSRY
# Sequence of Substance-P receptor (P25103 whole entry): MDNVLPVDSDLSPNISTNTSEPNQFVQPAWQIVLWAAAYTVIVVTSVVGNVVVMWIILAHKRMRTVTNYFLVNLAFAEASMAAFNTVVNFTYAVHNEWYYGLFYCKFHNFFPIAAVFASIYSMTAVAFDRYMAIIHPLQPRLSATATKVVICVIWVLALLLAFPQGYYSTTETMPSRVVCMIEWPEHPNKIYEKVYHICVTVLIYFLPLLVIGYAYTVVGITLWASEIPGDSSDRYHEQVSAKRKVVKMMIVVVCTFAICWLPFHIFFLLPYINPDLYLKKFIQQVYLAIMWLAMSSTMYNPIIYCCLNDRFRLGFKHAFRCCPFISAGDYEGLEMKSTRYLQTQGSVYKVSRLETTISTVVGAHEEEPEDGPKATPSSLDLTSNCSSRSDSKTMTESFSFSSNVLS
Compound,IC50 [1],Ki [1],IC50 (Histamine H2 receptor),IC50 [2],IC50 [3],IC50 [4],Ki [4],IC50 (Cytochrome P450 3A4),Ki (Cytochrome P450 3A4),IC50 [5],Ki [5],IC50 (D(3) dopamine receptor),IC50 [6],Ki [6],IC50 (Estrogen receptor),IC50 [7],IC50 (Melanocortin receptor 4),IC50 (Substance-P receptor),IC50 [8],Ki [8],other results
O=c1cc(-c2ccccc2)oc2c1ccc1ccccc12 [ALPHA-NAPHTHOFLAVONE],Not Active,Not Active,Not Active,Not Active,Not Active,Not Active,Not Active,Not Active,Not Active,Not Active,Not Active,Not Active,Not Active,Not Active,Not Active,Not Active,Not Active,Not Active,Not Active,Not Active,IC50 (Adenosine receptor A1; read-out: IC50): 1130 nM; Ki (Adenosine receptor A1; read-out: Ki): 661 nM; IC50 [9]: Not Active; Ki [9]: Not Active; IC50 [10]: Not Active
CNC(=O)Oc1ccc2c(c1)[C@]1(C)CCN(C)[C@@H]1N2C [PHYSOSTIGMINE],Not Active,Not Active,Not Active,Not Active,Not Active,Not Active,Not Active,Not Active,Not Active,Not Active,Not Active,Not Active,Not Active,Not Active,Not Active,Not Active,Not Active,Not Active,Not Active,Not Active,IC50 (Adenosine receptor A1; cho): Not Active; IC50 [9]: Not Active; Ki [9]: Not Active; IC50 [10]: Not Active
CCCC[C@@H](CC)COC(=O)c1ccccc1C(=O)OC[C@@H](CC)CCCC [BIS(2-ETHYLHEXYL)PHTHALATE],Not Active,Not Active,Not Active,Not Active,Not Active,Not Active,Not Active,Not Active,Not Active,Not Active,Not Active,Not Active,Not Active,Not Active,Not Active,Not Active,Not Active,Not Active,Not Active,Not Active,IC50 (Adenosine receptor A1; cho): Not Active; IC50 [9]: Not Active; Ki [9]: Not Active; IC50 [10]: Not Active
CN(C)[C@@H]1C(O)=C(C(N)=O)C(=O)[C@@]2(O)C(O)=C3C(=O)c4c(O)cccc4[C@@](C)(O)[C@H]3[C@H](O)[C@@H]12 [OXYTETRACYCLINE],Not Active,Not Active,Not Active,Not Active,Not Active,Not Active,Not Active,Not Active,Not Active,Not Active,Not Active,Not Active,Not Active,Not Active,Not Active,Not Active,Not Active,Not Active,Not Active,Not Active,IC50 (Adenosine receptor A1; cho): Not Active; IC50 [9]: Not Active; Ki [9]: Not Active; IC50 [10]: Not Active
NS(=O)(=O)c1cc2c(cc1Cl)NCNS2(=O)=O [HYDROCHLOROTHIAZIDE],Not Active,Not Active,Not Active,Not Active,Not Active,Not Active,Not Active,Not Active,Not Active,Not Active,Not Active,Not Active,Not Active,Not Active,Not Active,Not Active,Not Active,Not Active,Not Active,Not Active,IC50 (Adenosine receptor A1; cho): Not Active; IC50 [9]: Not Active; Ki [9]: Not Active; IC50 [10]: Not Active
Fc1ccc([C@@H]2CCNC[C@H]2COc2ccc3c(c2)OCO3)cc1 [PAROXETINE],Not Active,Not Active,Not Active,Not Active,Not Active,Not Active,Not Active,Not Active,Not Active,Not Active,Not Active,Not Active,Not Active,Not Active,Not Active,Not Active,Not Active,Not Active,Not Active,Not Active,IC50 (Adenosine receptor A1; cho): Not Active; IC50 [9]: Not Active; Ki [9]: Not Active; IC50 [10]: Not Active
